Reference: patent US20130231311A1, “NOVEL FORMULATIONS FOR TREATMENT OF MIGRAINE” (ZOGENIX, INC., priority 2008, published 2013)
Where “and” joins values, the source holds several entries; their conditions need not be identical. Equal entries are not always repeated. Where two headings read alike, the source gives them in different places.

How the values were obtained:
[1] = system: migraine; conditions: cited from earlier work
[2] = in vivo; cited from earlier work
[3] = system: migraine; conditions: in vivo; cited from earlier work
[4] = time to peak plasma concentration of triptans (FIG. 3); conditions: in vivo
[5] = pharmacokinetic parameters of injected versus oral sumatriptan (FIG. 2); assay type: in vivo; conditions: injected vs oral; injected dose is 3% of the oral dose
Text: (§1) FIG. 2 is a Table comparing pharmacokinetic and pharmacodynamic parameters of subcutaneously injected and oral sumatriptan.
(§2) FIG. 2 compares pharmacokinetic parameters of injected sumatriptan with oral sumatriptan.

[6] = system: migraine; experiment: pain relief at 2 hours, injected versus oral sumatriptan (FIG. 2); assay type: in vivo; conditions: via injection, 107 minutes after maximum plasma concentration
Text: as §1, §2

O=C(O)Cc1ccccc1Nc1c(Cl)cccc1Cl [diclofenac]
effectiveness ([1]; intramuscular): 70% and 88%
effectiveness ([1]; oral): 44%

CN1CCC[C@@H]1Cc1c[nH]c2ccc(CCS(=O)(=O)c3ccccc3)cc12 [eletriptan]
half life [2]: 4 h

CN(C)CCc1c[nH]c2ccc(C[C@H]3COC(=O)N3)cc12 [zolmitriptan]
half life [2]: 3 h
pain relief at two hours compared with rizatriptan [3]: less than that of rizatriptan

CN(C)CCc1c[nH]c2ccc(CS(=O)(=O)N3CCCC3)cc12 [almotriptan]
half life [2]: 3 to 4 h

CN[C@@H]1CCc2[nH]c3ccc(C(N)=O)cc3c2C1 [frovatriptan]
half life [2]: 26 h

CN(C)CCc1c[nH]c2ccc(Cn3cncn3)cc12 [rizatriptan]
half life [2]: 2 to 3 h
time to peak plasma concentration, earlier than sumatriptan and zolmitriptan [4]: ~1 h

CNS(=O)(=O)Cc1ccc2[nH]cc(CCN(C)C)c2c1 [sumatriptan]
AUC relative to oral dose [5]: about ⅕
maximum concentration relative to oral dose [5]: approximately half
pain relief at 2 hours, injected vs oral dose [6]: better for the injected dose than for the oral dose
half life [2]: 2.5 h
pain relief at two hours compared with rizatriptan [3]: less than that of rizatriptan

CNS(=O)(=O)CCc1ccc2[nH]cc(C3CCN(C)CC3)c2c1 [naratriptan]
half life [2]: 5 to 8 h
